From ChEMBL document CHEMBL1201862, “PubChem BioAssay data set” (2004)
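1) Cells in 96-well plates. 2) Compound, 48 h, 5 concentrations. 3) Linear interpolation between surrounding doses. 4) Unreached endpoint = highest concentration. Abbreviation: GI50, concentration required for 50% inhibition of growth.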 The source made the active and inactive calls. No stated cut-off is given here; in the data, active = GI50 up to about 1.1 µM and inactive = higher.

Experiments:
Assay in all cases: growth of human tumour cells (NCI), 48 h
HCT-116 = system: HCT-116
HL-60 = system: HL-60
HOP-62 = system: HOP-62
HOP-92 = system: HOP-92
NCI-H23 = system: NCI-H23
OVCAR-3 = system: OVCAR-3
OVCAR-5 = system: OVCAR-5
OVCAR-8 = system: OVCAR-8
RPMI-8226 = system: RPMI-8226
SF-295 = system: SF-295
SK-OV-3 = system: SK-OV-3
SW-620 = system: SW-620
UACC-257 = system: UACC-257
A498 = system: A498
CAKI-1 = system: CAKI-1
Malme-3M = system: Malme-3M

SMILES | GI50 (HCT-116) | GI50 (HL-60) | GI50 (HOP-62) | GI50 (HOP-92) | GI50 (NCI-H23) | GI50 (OVCAR-3) | GI50 (OVCAR-5) | GI50 (OVCAR-8) | GI50 (RPMI-8226) | GI50 (SF-295) | GI50 (SK-OV-3) | GI50 (SW-620) | GI50 (UACC-257) | GI50 (A498) | GI50 (CAKI-1) | GI50 (Malme-3M)
NC(Cc1ccccc1)C(=O)OCN1C(=O)C2C3C=CC(C2C1=O)C1C2C(=O)N(COC(=O)C(N)Cc4ccccc4)C(=O)C2C31 (centres undefined) | 16.3 µM (inactive) | 23.7 µM (inactive) | > 100 µM (inactive) | 32 µM (inactive) | 20.2 µM (inactive) | 33 µM (inactive) | 47 µM (inactive) | 23.7 µM (inactive) | 27.2 µM (inactive) | 48 µM (inactive) | 50.2 µM (inactive) | 19.5 µM (inactive) | 28.8 µM (inactive) | – | – | –
CC1=C(/C(C)=N/NC(=O)c2ccccc2O)C(C)C(/C(C)=N/NC(=O)c2ccccc2O)=C(C)N1 | 18.5 µM (inactive) | 5.04 µM (inactive) | 25.1 µM (inactive) | 28.8 µM (inactive) | 13 µM (inactive) | 12.2 µM (inactive) | 24.2 µM (inactive) | 16.8 µM (inactive) | – | – | 38.1 µM (inactive) | 33.6 µM (inactive) | 23.5 µM (inactive) | 27.8 µM (inactive) | 28.1 µM (inactive) | 29.4 µM (inactive)
Cc1cc(OC(=O)c2c(C)cc(OC(=O)c3c(C)cc(O)cc3O)cc2O)cc(O)c1C(=O)O [GYROPHORIC ACID] | – | > 100 µM (inactive) | > 100 µM (inactive) | 69.5 µM (inactive) | > 100 µM (inactive) | > 100 µM (inactive) | > 100 µM (inactive) | > 100 µM (inactive) | > 100 µM (inactive) | > 100 µM (inactive) | > 100 µM (inactive) | > 100 µM (inactive) | > 100 µM (inactive) | > 100 µM (inactive) | > 100 µM (inactive) | > 100 µM (inactive)
CCOc1ccc(NC(=O)C(=O)CC(=O)C2=C(C)Nc3ccccc3S2)cc1 | > 50 µM (inactive) | – | > 50 µM (inactive) | > 50 µM (inactive) | > 50 µM (inactive) | > 50 µM (inactive) | > 50 µM (inactive) | > 50 µM (inactive) | > 50 µM (inactive) | > 50 µM (inactive) | > 50 µM (inactive) | > 50 µM (inactive) | > 50 µM (inactive) | > 50 µM (inactive) | > 50 µM (inactive) | > 50 µM (inactive)
O=S(=O)(/C=C/CS(=O)(=O)c1ccccc1)c1ccccc1 | 19.1 µM (inactive) | 15.1 µM (inactive) | 24.9 µM (inactive) | 45 µM (inactive) | 19.2 µM (inactive) | 26.5 µM (inactive) | 47.1 µM (inactive) | 16.9 µM (inactive) | 18.8 µM (inactive) | 27.9 µM (inactive) | 29.3 µM (inactive) | 20.9 µM (inactive) | 24.2 µM (inactive) | 27.5 µM (inactive) | – | 29.6 µM (inactive)
CC(=O)NNc1nc(C)c(C(=O)/C=C/c2ccc(N(C)C)cc2)s1 | – | > 100 µM (inactive) | > 100 µM (inactive) | > 100 µM (inactive) | > 100 µM (inactive) | > 100 µM (inactive) | > 100 µM (inactive) | > 100 µM (inactive) | > 100 µM (inactive) | > 100 µM (inactive) | > 100 µM (inactive) | > 100 µM (inactive) | > 100 µM (inactive) | > 100 µM (inactive) | > 100 µM (inactive) | > 100 µM (inactive)
O=C1[C@H]2ON(c3ccccc3)C(c3ccccc3F)[C@H]2C(=O)N1c1ccc(Cc2ccc(N3C(=O)[C@@H]4ON(c5ccccc5)C(c5ccccc5F)[C@@H]4C3=O)cc2)cc1 (some centres undefined) | – | > 100 µM (inactive) | > 100 µM (inactive) | 21.5 µM (inactive) | > 100 µM (inactive) | > 100 µM (inactive) | > 100 µM (inactive) | – | > 100 µM (inactive) | 67.1 µM (inactive) | > 100 µM (inactive) | > 100 µM (inactive) | 45.1 µM (inactive) | > 100 µM (inactive) | > 100 µM (inactive) | > 100 µM (inactive)
Cc1cc(NS(=O)(=O)c2ccc(Nc3c4ccccc4nc4c(C(=O)NCCN(C)C)ccc(Cl)c34)cc2)no1 | 3.3 µM (inactive) | 1.14 µM (inactive) | 4.57 µM (inactive) | – | 3.05 µM (inactive) | 11.7 µM (inactive) | 15.1 µM (inactive) | 1.12 µM (active) | – | 3.8 µM (inactive) | – | 1.92 µM (inactive) | – | – | – | –
Nc1nc(NC2C=C(CO)C(O)C2O)c([N+](=O)[O-])c(=O)[nH]1 (centres undefined) | > 100 µM (inactive) | – | > 100 µM (inactive) | > 100 µM (inactive) | > 100 µM (inactive) | > 100 µM (inactive) | > 100 µM (inactive) | > 100 µM (inactive) | – | > 100 µM (inactive) | > 100 µM (inactive) | > 100 µM (inactive) | > 100 µM (inactive) | > 100 µM (inactive) | > 100 µM (inactive) | > 100 µM (inactive)
